Reference: patent US20120196918A1, “PREVENTING ISLET INFLAMMATION AND DYSFUNCTION AND MAINTAINING PROPER GLUCOSE LEVELS BY CONTROLLING eIF5A AND ITS HYPUSINATION” (priority 2009, published 2012)

Assays:
[1] = test system: eIF5A-Hyp; test: New hypusine formation (3H-spermidine incorporation) in mouse islets; type: cell-based; conditions: GC7 125 μM overnight
Excerpt: (§1) eIF5A1 and eIF5A2 are the only proteins known to contain the unique amino acid hypusine at position 50. Hypusine is formed as a posttranslational modification of residue Lys50 in a reaction requiring spermidine and catalyzed by the sequential actions of the enzymes deoxyhypusine synthase (DHS) and deoxyhypusine hydroxylase (DOHH) (Chen, K Y, and Liu, A Y. Biochemistry and function of hypusine formation on eukaryotic initiation factor 5A. Biol Signals. 1997; 6(3):105-109). […] To further investigate the mechanism of eIF5A-regulated translation of Nos2, studies were performed following overnight incubation of cells with mimosine (an inhibitor of DOHH) and GC7 (an inhibitor of DHS). […] Similar data using GC7 were obtained in primary mouse islets (data not shown) and in human islets (FIGS. 5F and 5G). […]
(§2) Measurement of hvpusination: Approximately 100 islets or 1×10^6 INS-1 cells per condition were incubated with 1.5 μCi ^3H-spermidine (Perkin Elmer) in the presence of 1 mM aminoguanidine. […] Gels were visualized by fluorography, and bands were quantitated using Kodak Molecular Imaging Software v. […]

[2] = test system: iNOS; test: Nitrite release into INS-1 cell medium (Griess reagent); type: cell-based, rat; conditions: increasing GC7 concentrations, cytokines 4 h; greatest inhibition at 125 μM
Excerpt: eIF5A1 and eIF5A2 are the only proteins known to contain the unique amino acid hypusine at position 50. Hypusine is formed as a posttranslational modification of residue Lys50 in a reaction requiring spermidine and catalyzed by the sequential actions of the enzymes deoxyhypusine synthase (DHS) and deoxyhypusine hydroxylase (DOHH) (Chen, K Y, and Liu, A Y. Biochemistry and function of hypusine formation on eukaryotic initiation factor 5A. Biol Signals. 1997; 6(3):105-109). […] To further investigate the mechanism of eIF5A-regulated translation of Nos2, studies were performed following overnight incubation of cells with mimosine (an inhibitor of DOHH) and GC7 (an inhibitor of DHS). […]
Immunoblot and nitrite and iNOS assays: Whole cell extracts were resolved by electrophoresis on a 4-20% SDS-polyacrylamide gel, followed by immunoblot using anti-eIF5A1, anti-eIF5A2, anti-iNOS, anti-GFP, or anti-actin primary antibodies and fluorophore-labeled secondary antibodies. Immunoblots were visualized using the Li-Cor® Odyssey® system (Li-Cor Biosciences) and quantitated by scanning fluorometry using Odyssey Imaging v. […] Nitrite was quantitated by measuring nitric oxide-derived nitrite from INS-1 cell culture medium using the Griess reagent (Promega) according to the manufacturer's recommendations. iNOS activity was measured using a commercially available kit (Cayman).

[3] = test system: eIF5A-Hyp; test: New hypusine formation (3H-spermidine incorporation) in INS-1 (832/13) cells; type: cell-based, rat; conditions: GC7 125 μM overnight
Excerpt: as §1, §2

[4] = test system: INS-1 cells; test: Live/dead two-colour fluorescence cytometry of INS-1 cells; type: cell-based, rat
Experimental: Because GC7 is known to be inactivated by the action amine oxidases, which are abundant in serum, typical studies with GC7 in the literature have used aminoguanidine to inhibit amine oxidases (16). […] To rule out possible adverse effects of GC7 on cell viability, quantitative 2 color fluorescence analysis of live (calcein-AM-positive) and dead (ethidium homodimer-1-positive) cells were performed using fluorescence cytometry.
For flow cytometry studies, INS-1 cells (serum starved or pretreated with GC7 as indicated in the figures) were stained with calcein-AM and ethidium homodimer 1 (Live/Dead® kit, Invitrogen) for 30 minutes, and 30,000 cells/sample were analyzed for green (living cells) and red (dead cells) fluorescence using a FACS Calibur (BD bioscience) instrument. For cell cycle analysis, 10^6 cells were washed in PBS and fixed in ice-cold 70% ethanol for 1 hour. After washing in PBS, cells were re-suspended in Guava cell cycle reagent (Millipore) and incubated at room temperature for 30 minutes. Intercalation of propidium iodide into cellular DNA was quantitated using a FACS Calibur instrument and the data analyzed for cell cycle status using Modfit software.

NCCCCCCCN=C(N)N [GC7]
new hypusine formation in mouse islets [1]: effectively inhibits new hypusine formation | nitrite release into the medium [2]: dose-dependent attenuation | new hypusine formation in INS-1 (832/13) [3]: effectively inhibits new hypusine formation | percentage of dead cells ([4]; 125 μM GC7, 3 days exposure): 70% | percentage of dead INS-1 cells ([4]; GC7 0 to 125 μM, overnight exposure, unaffected by concentration): 4-5%
